Columns and labels:
JNK and JIP = conditions: read-out: IC50 (protein interaction between JNK and JIP); cited from earlier work
[1] = tested on: Staphylococcus aureus strain ATCC 29213 (S. aureus 29213); assay: MIC / checkerboard assay; format: cell-based; conditions: for MIC after use in combination: Polymyxin E + SU3327 in combination, checkerboard; for MIC: drug alone
Description: (§1) The strains used in the tests, the strain Escherichia coli ATCC 25922 (E. coli 25922) and the strain Staphylococcus aureus ATCC 29213 (S. aureus 29213), were purchased from China Veterinary Culture Collection Center. Methicillin Resistant Staphylococcus Aureus USA300 (ATCC BAA-1717) was purchased from American Type Culture Collection. The strains used in the other experiments, the strains Escherichia coli B2 (E. coli B2), Escherichia coli GZP08-8 (E. coli GZP08-8), Klebsiella pneumoniae 1202 (K. pneumoniae 1202), Klebsiella pneumoniae 1202-45-5 (K. pneumoniae 1202-45-5), Salmonella 1-5 (Salmonella 1-5), and Shigella Y (Shigella Y) were all from National Center for Veterinary Drug Safety Evaluation of China Agricultural University, with Escherichia coli B2 (E. coli B2), Escherichia coli GZP08-8 (E. coli GZP08-8), Klebsiella pneumoniae 1202-45-5 (K. pneumoniae 1202-45-5), and Salmonella 1-5 (Salmonella 1-5) as polymyxin resistant strains containing MCR-1. Klebsiella pneumoniae 1202 (K. pneumoniae 1202) and Shigella Y (Shigella Y) were strains clinically sensitive to colistin.
(§2) The MIC of SU3327 administered alone was detected with dilution by factors. Subsequently, tests were performed with SU3327 alone, Polymyxin E (Colistin) alone, and in combination, respectively, in sterile, 96-well microplates according to checkerboard assays for the joint inhibitory activities against the above-mentioned strains, and further Fractional Inhibitory Concentration Index (FICI) was calculated. FICI of SU3327 and Polymyxin E=MIC (Polymyxin E in combination)/MIC (Polymyxin E)+MIC (SU3327 in combination)/MIC (SU3327 alone). If FICI≤0.5, synergy was identified; if 0.5<FICI≤1, an additive effect was identified; and if […], an irrelevant effect was identified.

[2] = tested on: Escherichia coli strain ATCC 25922 (E. coli 25922); assay: MIC / checkerboard assay; format: cell-based; conditions: for MIC after use in combination: Polymyxin E + SU3327 in combination, checkerboard; for MIC: drug alone
Description: as §1, §2

Shigella Y = assay: MIC / checkerboard assay; format: cell-based; conditions: for MIC after use in combination: Polymyxin E + SU3327 in combination, checkerboard
Description: as §1, §2

[3] = tested on: Escherichia coli B2 (E. coli B2) containing MCR-1; assay: MIC / checkerboard assay; format: cell-based; conditions: for MIC after use in combination: Polymyxin E + SU3327 in combination, checkerboard; for MIC: drug alone
Description: as §1, §2

Salmonella 1-5 = assay: MIC / checkerboard assay; format: cell-based; conditions: for MIC after use in combination: Polymyxin E + SU3327 in combination, checkerboard
Description: as §1, §2

[4] = tested on: Klebsiella pneumoniae 1202 (K. pneumoniae 1202); assay: MIC / checkerboard assay; format: cell-based; conditions: for MIC after use in combination: Polymyxin E + SU3327 in combination, checkerboard; for MIC: drug alone
Description: as §1, §2

[5] = tested on: Staphylococcus Aureus USA300 (S. aureus USA300); assay: MIC / checkerboard assay; format: cell-based; conditions: for MIC after use in combination: Polymyxin E + SU3327 in combination, checkerboard; for MIC: drug alone
Description: as §1, §2

[6] = tested on: Klebsiella pneumoniae 1202-45-5 (K. pneumoniae 1202-45-5); assay: MIC / checkerboard assay; format: cell-based; conditions: for MIC after use in combination: Polymyxin E + SU3327 in combination, checkerboard; for MIC: drug alone
Description: as §1, §2

[7] = tested on: Escherichia coli GZP08-8 (E. coli GZP08-8); assay: MIC / checkerboard assay; format: cell-based; conditions: for MIC after use in combination: Polymyxin E + SU3327 in combination, checkerboard; for MIC: drug alone
Description: as §1, §2

K. pneumoniae 1202-45-5 [8] = assay: Thigh infection model of neutropenic BALB/c mice infected with drug resistant bacteria; format: in vivo; conditions: 10 mg/kg body weight each drug, intraperitoneal, 24 hour post infection; for bacteria loading in the thigh of the mice: twice 8 h apart, K. pneumoniae 1202-45-5
Experimental: In order to avoid the influence of mice's own immunity on the experiments, all mice were administered in advance with cyclophosphamide twice, four days and one day before infection, respectively, 100 mg/kg intraperitoneal injection each time, resulting in neutropenia and immune deficiency in the mice. 24 female BALB/c mice (weighing about 20 g) aged 6-8 weeks old were prepared. K. pneumoniae 1202-45-5 in logarithmic phase was re-suspended with a PBS buffer to prepare a suspension at the concentration of 1×10^7 CFU/mL; in the mice, the total amount of bacteria injected into the thigh of each mouse was 1×10^6 CFUs in the end. Then they were randomly divided into model control group (solvent treatment group), Polymyxin E treatment group (10 mg/kg body weight), SU3327 treatment group (10 mg/kg body weight), and combined treatment group of SU3327 (10 mg/kg body weight)+Polymyxin E (10 mg/kg body weight) (6 mice in each group). The treatments are detailed as follows:
(§3) Solvent control treatment group: 0.1 mL of the suspension of K. pneumoniae 1202-45-5 was intramuscularly injected into a mouse in the thigh on the right side of its abdominal cavity; one hour later, the mouse was intraperitoneally injected with 200 μL of a PBS buffer.
as §3, with “Polymyxin E” for “Solvent control”, “solution of drug, Polymyxin E (1 mg/mL); the final dose was 10 mg/kg body weight;” for “PBS buffer.”
as §3, with “SU3327” for “Solvent control”, “solution of drug, SU3327 (1 mg/mL); the final dose was 10 mg/kg body weight; […]” for “PBS buffer.”

K. pneumoniae 1202 = assay: In vitro bacterial growth (bactericidal) curve; format: cell-based, Klebsiella pneumoniae; conditions: continuous treatment for 24 h, Polymyxin E 0.25 μg/mL, SU3327 10 μg/mL, alone or combined
Experimental: (§4) 6.0 g powdered beef extract, 1.5 g soluble starch, 17.5 g acid hydrolysate of casein, and 17.0 g agar were weighed, to which 900 mL distilled water was added, with the pH adjusted to 7.3, and the volume to 1000 mL. The mixture was subject to autoclave at 121° C. for 15 minutes, and then cooled to 50° C., poured into a sterile plate, and dried for later use.
(§5) Following culturing of K. pneumoniae 1202 and K. pneumoniae 1202-45-5 in BHI broth for 6-8 hours, the bacteria were diluted to a concentration of 10^6 colony count using a turbidimeter.
(§6) For K. pneumoniae 1202, drug treatment concentrations were set as follows: Polymyxin E (0.25 μg/mL), SU3327 (10 μg/mL), SU3327 (10 μg/mL)+Polymyxin E (0.25 μg/mL); the bacteria in control group were treated with a solvent, 0.1% DMSO. For K. pneumoniae 1202-45-5, drug treatment concentrations were set as follows: Polymyxin E (1 μg/mL), SU3327 (20 μg/mL), SU3327 (20 μg/mL)+Polymyxin E (1 μg/mL). 100 μL of a bacterial solution was applied on an agar plate at 1 h, 3 h, 6 h, 12 h and 24 h post drug treatment, respectively, and cultured for at least 16 h for a colony count.

K. pneumoniae 1202-45-5 [9] = assay: In vitro bacterial growth (bactericidal) curve; format: cell-based, Klebsiella pneumoniae; conditions: continuous treatment for 24 h, Polymyxin E 1 μg/mL, SU3327 20 μg/mL, alone or combined
Experimental: as §4, §5, §6

JNK = conditions: substrate-competitive JNK inhibitor; cited from earlier work
Akt = conditions: cited from earlier work
p38α = p38α (Homo sapiens, UniProt Q16539); conditions: cited from earlier work
Sequence of p38α (Q16539 whole entry): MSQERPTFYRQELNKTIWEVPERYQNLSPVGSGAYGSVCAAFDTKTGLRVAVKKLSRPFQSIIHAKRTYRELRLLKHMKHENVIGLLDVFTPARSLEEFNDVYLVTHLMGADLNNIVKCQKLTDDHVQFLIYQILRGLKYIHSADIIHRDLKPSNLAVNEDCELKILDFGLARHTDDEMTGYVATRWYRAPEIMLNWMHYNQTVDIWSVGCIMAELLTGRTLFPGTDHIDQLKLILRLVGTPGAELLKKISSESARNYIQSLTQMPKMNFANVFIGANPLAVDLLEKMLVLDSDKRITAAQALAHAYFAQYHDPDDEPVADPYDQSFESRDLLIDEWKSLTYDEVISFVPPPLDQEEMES

Molecule	MIC after use in combination [1]	MIC [1]	MIC after use in combination [2]	MIC [2]	MIC after use in combination (Shigella Y)	MIC after use in combination [3]	MIC [3]	MIC after use in combination (Salmonella 1-5)	MIC after use in combination [4]	MIC [4]	MIC after use in combination [5]	MIC [5]	MIC after use in combination [6]	MIC [6]	MIC after use in combination [7]	MIC [7]	bacteria loading in the thigh of the mice (K. pneumoniae 1202-45-5 [8])	bacterial colony counts (K. pneumoniae 1202)	bacterial colony counts (K. pneumoniae 1202-45-5 [9])	further results
Nc1nnc(Sc2ncc([N+](=O)[O-])s2)s1 [SU3327]	2.5 µg/mL	5 µg/mL	5 µg/mL	10 µg/mL	2.5 µg/mL	2.5 µg/mL	20 µg/mL	2.5 µg/mL	2.5 µg/mL	20 µg/mL	1.25 µg/mL	5 µg/mL	5 µg/mL	20 µg/mL	2.5 µg/mL	10 µg/mL	6.55 Log 10 CFU/mL	8.35 Log 10 CFU/mL	6.65 Log 10 CFU/mL	IC50 (JNK and JIP): 239 nM; MIC (Shigella Y; drug alone): 5 µg/mL; MIC (Salmonella 1-5; drug alone): 20 µg/mL; IC50 (JNK): 700 nM; activity for Akt kinase (Akt): low activity; activity for p38α kinase (p38α): low activity
Polymyxin E	64 µg/mL	more than 128 μg/mL	0.0625 µg/mL	0.125 µg/mL	0.032 µg/mL	0.5 µg/mL	8 µg/mL	1 µg/mL	0.0625 µg/mL	1 µg/mL	32 µg/mL	more than 128 μg/mL	0.25 µg/mL	16 µg/mL	0.25 µg/mL	16 µg/mL	6.82 Log 10 CFU/mL	8.9 Log 10 CFU/mL	9.3 Log 10 CFU/mL	bacteria loading in the thigh compared with solvent control group (K. pneumoniae 1202-45-5 [8]): not significantly different
